One block for each compound: values may come before it.
What was measured:
[1] = system: T1, pQR2189; test: HPLC initial rates, Michaelis-Menten fit; assay type: biochemical, uncultured bacterium (household drain metagenome); conditions: apparent, PLP 1 mM, KPi pH 8 50 mM, 20% DMSO, 35 °C
T1 construct: N- and C-terminal His6 tags, pET-28a(+) NdeI/XhoI, expressed in E. coli BL21(DE3)
Source text: HPLC initial rates, Michaelis-Menten fit on pQR2189

[2] = system: T1, pQR2189; test: continuous UV absorbance at […] nm, Michaelis-Menten fit; assay type: biochemical, uncultured bacterium (household drain metagenome); conditions: apparent, PLP 0.1 mM, KPi pH 7.5 50 mM, 1% DMSO, 30 °C

Structure (SMILES): CC(C)N [compound 27, isopropylamine]
Km ([1]; 1-Boc-3-pyrrolidinone 10 mM): 10.6 ± 1.6 mM

Km ([2]; amine donor (S)-7 5 mM): 0.29 ± 0.08 mM
Structure (SMILES): CC(=O)C(=O)O [compound 2, pyruvate]

Km ([2]; pyruvate 1 mM): 14.8 ± 3.2 mM
Structure (SMILES): C[C@H](N)c1ccccc1 [(S)-7, (S)-α-methylbenzylamine]

Km ([1]; isopropylamine 200 mM): 18.9 ± 3.1 mM
Structure (SMILES): CC(C)(C)OC(=O)N1CCC(=O)C1 [18a, 1-Boc-3-pyrrolidinone]
